Tests used:
[1] = system: Parkinson's disease mouse model; conditions: pre-onset treatment; cited from earlier work
[2] = system: Parkinson's disease model cynomolgus monkeys (MPTP); assay: Test Example 1: NDSs after administration of Compound (I) alone in MPTP Parkinson's disease model monkeys; type: in vivo; set-up: key to Subgroup 2: Specific motor functions score: specific motor functions subscore, range 0-21; conditions: Istradefylline 60 mg/kg (G5)
Experimental: (§1) The therapeutic effect of Compound (I) on Parkinson's disease was examined using Parkinson's disease model animals which are produced by administering MPTP (1-methyl-4-phenyl-1,2,3,6-tetrahydropyridine).
MPTP was administered to male cynomolgus monkeys at the age of 4 to 5 to make Parkinson's disease model cynomolgus monkeys. MPTP was additionally administered to animals with neurologic deficit scores (Neurological deficit scores: NDSs, Schneider et al., “Development of levodopa-induced dyskinesias in parkinsonian monkeys may depend upon rate of symptom onset and/or duration of symptoms”, Brain Res., 2003, 990:38-44.) of less than 25.
Eight Parkinson's disease model cynomolgus monkeys were randomized into 5 groups of approximately equal mean and variance in terms of Parkinson behavior rating (Tremor score) and body weight. On subsequent cycle 2, cycle 3, cycle 4 and cycle 5, the animals were crossed over to receive the other treatments. A wash out period of one week or more was set between each cycle.
By the end of the study, each animal had received all the five treatments. Istradefylline is an adenosine A2A receptor antagonist approved as a drug for improving a wearing off phenomenon in Parkinson's disease being treated with a levodopa-containing preparation in the United States of America and Japan (Patent Literature 4). As a vehicle, an aqueous solution containing 0.43% (w/v) methyl cellulose 400, 10% (v/v) dimethyl sulfoxide (DMSO), and 4.5% (w/v) Cremophor (R) was used.
(§2) Before the administration, and 1 hr., 4 hrs., and 24 hrs. after the administration of the test substances, the NDSs of the monkeys were evaluated. The evaluation items are as follows. The behavior evaluation was performed in a blinded manner. The NDSs of the groups were compared using Steel's test. The p-values of less than 0.05 were considered to be statistically significant.
Subgroup 1: generalized behaviors (0-32) • 1.1a Appetite • 0: Normal • 1: Up to 30% food left • 2: Up to 65% food left • 3: Greater than 65% food left • 1.1b Response to offered food • 0: Responds to offered food • 1: Inconsistent response to offered food • 2: Little to no interest in offered food • 1.2 Overall activity • 0: Normal • 1: Mild hypokinesia; decrease in spontaneous movement • 2: Moderate hypokinesia; sparse spontaneous movement • 3: Severe hypokinesia; no spontaneous movement; tends to remain in one place • 1.3 Appearance • 0: Normal • 1: Mild but noticeable decrease in self-maintenance • 2: Moderate decrease in self-maintenance • 3: Severe lack of self-maintenance • 1.4 Posture • 0: Normal • 1: Minor flexing or stooping • 2: Moderate flexing or stooping; head and upper body almost parallel to floor of cage • 3: Severe flexing or stooping; head lowered to feet • 1.5 Balance • 0: Normal • 1: Mild loss on arising or movement • 2: Moderate loss on arising or movement; occasionally falls or supports self to keep from falling • 3: Severe loss of balance; falls • 1.6 Climbing • 0: Climbing observed with no delays in initiation/execution • 1: Mild deficit in ability to climb and support weight • 2: Moderate deficit in ability to climb and support weight; tends to ‘slide down’ • 3: Absence of any climbing behavior • 1.7 Tremor • 0: Absent • 1: Slight and intermittent • 2: Slight and persistent or moderate and intermittent • 3: Moderate/severe and persistent • 1.8 Freezing during movement • 0: Absent • 1: Occasional freezing for brief periods • 2: Occasional freezing for prolonged periods or frequent freezing for brief periods • 3: Prolonged and frequent freezing • 1.9 Facial expression • 0: Normal • 1: Mild hypomimia • 2: Moderate hypomimia • 3: Severe, masked fixed faces • 1.10 Defense reaction • 0: Normal • 1: Mild, noticeable reduction in reaction or slowed reaction, but can be provoked to react • 2: Moderate reduction in reaction; can produce facial display but not body reaction • 3: Little to no response
Subgroup 2: Specific Motor Functions (0-21)

[3] = system: levodopa-induced dyskinesia model cynomolgus monkeys; assay: Test Example 3: dyskinesia score in levodopa-induced dyskinesia model monkeys; type: in vivo; set-up: key to Dyskinesia score: dyskinesia score 0 = normal home cage activity to 4 = severe stereotypy; conditions: Istradefylline 60 mg/kg (G4)
Experimental: A levodopa/carbidopa mixture containing 80 mg/kg of levodopa and 20 mg/kg of carbidopa and having a solution volume of 5 mL/kg was orally administered to Parkinson's disease model cynomolgus monkeys at the age of 6 to 7 prepared in the same way as in Test Example 1 for 8 consecutive days to provide levodopa-induced dyskinesia model cynomolgus monkeys. The induction of dyskinesia was determined based on the “dyskinesia score” in accordance with the following behavior evaluation items in the following test on activity in home cages, and animals having dyskinesia scores of 1 or more on day 7 of the repeated administration of the levodopa/carbidopa mixture were used.
Home cage activities corresponding to dyskinesia scores • 0: Normal home cage activity (exploring or inactivity, able to drink water, plays with mirror or caging, climbing of the walls). • 1: Some interference with normal activity, however able to climb walls. • 2: Occasional exploration of cage, some stereotypy • 3: Little normal movement, lack of climbing of walls, clear stereotypy • 4: Lack of normal home cage activity, lack of normal exploratory behavior and movement, severe stereotypy
Seven levodopa-induced dyskinesia model cynomolgus monkeys were randomized into 4 groups of approximately equal mean and variance in terms of body weight. On subsequent cycles 2, 3, and 4, the animals were crossed over to receive the other treatment. A wash out period of one week or more was set between cycles.
One of the seven animals was excluded from the evaluation of cycles 3 and 4 because it was unable to get up due to dyskinesia on day 8 in cycle 3 of the repeated administration of the levodopa/carbidopa mixture.
By the end of the study, each animal had received all the four treatments. Each substance was administered 1 hr. after the administration on day 8 of the repeated administration of the levodopa/carbidopa mixture. As a vehicle, an aqueous solution containing 0.43% (w/v) methyl cellulose 400, 10% (v/v) dimethyl sulfoxide (DMSO), and 4.5% (w/v) Cremophor (R) were used.
as §2, with “dyskinesia scores” for “NDSs”, “animals” for “monkeys”, “evaluated.” for “evaluated. The evaluation items are as follows.”

[4] = system: Parkinson's disease model cynomolgus monkeys (MPTP); assay: Test Example 2: NDSs after combined administration of Compound (I) and levodopa in MPTP Parkinson's disease model monkeys; type: in vivo
Source text: as §1
Parkinson's disease model cynomolgus monkeys were provided in the same way as in Test Example 1, and the therapeutic effect of the combined administration of Compound (I) and levodopa was examined.
By the end of the study, each animal had received all the five treatments. As a vehicle, an aqueous solution containing 0.43% (w/v) methyl cellulose 400, 10% (v/v) dimethyl sulfoxide (DMSO), and 4.5% (w/v) Cremophor (R) was used.
Before the administration, and 1 hr., 4 hrs., and 24 hrs. after the administration of the test substances, the NDSs of the monkeys were evaluated. The evaluation items and the evaluation methods are the same as in Test Example 1.

[5] = Levodopa 5 mg/kg (G3), 1 hr. after administration
[6] = Levodopa 5 mg/kg (G3), 4 hrs. after administration
[7] = Levodopa 5 mg/kg (G3), 24 hrs. after administration
[8] = Levodopa 5 mg/kg (G3), Pre (before administration)
[9] = Levodopa 10 mg/kg (G2), 1 hr. after administration
[10] = Levodopa 10 mg/kg (G2), 4 hrs. after administration
[11] = Levodopa 10 mg/kg (G2), 24 hrs. after administration
[12] = Levodopa 10 mg/kg (G2), Pre (before administration)

## Cc1ccsc1C(=CCCN1CCC[C@@H](C(=O)O)C1)c1sccc1C [tiagabine]
[1]
  effect on nigrostriatal axis and motor dysfunction: partially protects nigrostriatal axis to ameliorate motor dysfunction

## CCn1c(=O)c2c(nc(/C=C/c3ccc(OC)c(OC)c3)n2C)n(CC)c1=O [Istradefylline, reference compound]
[2]; 1 hr. after administration
  Subgroup 1: GENERALIZED BEHAVIORS score: 16.1 ± 0.9
  Subgroup 2: Specific motor functions score: 12.3 ± 0.8
  Total score of NDSs: 28.4 ± 1.6
  Tremor score: 1.8 ± 0.2
[2]; 4 hrs. after administration
  Subgroup 1: GENERALIZED BEHAVIORS score: 14.5 ± 0.6
  Subgroup 2: Specific motor functions score: 10.9 ± 0.5
  Total score of NDSs: 25.4 ± 1.0
  Tremor score: 1.6 ± 0.2
[2]; 24 hrs. after administration
  Subgroup 1: GENERALIZED BEHAVIORS score: 15.9 ± 0.9
  Subgroup 2: Specific motor functions score: 12.1 ± 0.5
  Total score of NDSs: 28.0 ± 1.2
  Tremor score: 1.6 ± 0.2
[2]; Pre (before administration)
  Subgroup 1: GENERALIZED BEHAVIORS score: 17.4 ± 0.9
  Subgroup 2: Specific motor functions score: 13.5 ± 0.4
  Total score of NDSs: 30.9 ± 1.3
  Tremor score: 2.1 ± 0.1
[3]; 1 hr. after administration
  Dyskinesia score: 1.8 ± 0.2
[3]; 4 hrs. after administration
  Dyskinesia score: 1.8 ± 0.2
[3]; 24 hrs. after administration
  Dyskinesia score: 1.8 ± 0.2
[3]; Pre (before administration)
  Dyskinesia score: 1.7 ± 0.2

## N[C@@H](Cc1ccc(O)c(O)c1)C(=O)O [Levodopa, levodopa]
[4]; [5]
  Subgroup 1: GENERALIZED BEHAVIORS score: 14.0 ± 0.7
  Subgroup 2: Specific motor functions score: 11.0 ± 0.9
  Total score of NDSs: 25.0 ± 1.6
  Tremor score: 1.5 ± 0.2
[4]; [6]
  Subgroup 1: GENERALIZED BEHAVIORS score: 15.0 ± 0.9
  Subgroup 2: Specific motor functions score: 11.9 ± 0.8
  Total score of NDSs: 26.9 ± 1.7
  Tremor score: 1.8 ± 0.2
[4]; [7]
  Subgroup 1: GENERALIZED BEHAVIORS score: 17.0 ± 0.7
  Subgroup 2: Specific motor functions score: 13.6 ± 0.5
  Total score of NDSs: 30.6 ± 1.1
  Tremor score: 2.0 ± 0.0
[4]; [8]
  Subgroup 1: GENERALIZED BEHAVIORS score: 17.4 ± 0.7
  Subgroup 2: Specific motor functions score: 14.3 ± 0.5
  Total score of NDSs: 31.6 ± 1.1
  Tremor score: 2.0 ± 0.0
[4]; [9]
  Subgroup 1: GENERALIZED BEHAVIORS score: 13.5 ± 0.9
  Subgroup 2: Specific motor functions score: 10.9 ± 0.5
  Total score of NDSs: 24.4 ± 1.2
  Tremor score: 1.4 ± 0.2
[4]; [10]
  Subgroup 1: GENERALIZED BEHAVIORS score: 15.0 ± 0.7
  Subgroup 2: Specific motor functions score: 12.3 ± 0.5
  Total score of NDSs: 27.3 ± 1.0
  Tremor score: 1.4 ± 0.2
[4]; [11]
  Subgroup 1: GENERALIZED BEHAVIORS score: 17.6 ± 0.7
  Subgroup 2: Specific motor functions score: 14.0 ± 0.5
  Total score of NDSs: 31.6 ± 1.0
  Tremor score: 2.0 ± 0.0
[4]; [12]
  Subgroup 1: GENERALIZED BEHAVIORS score: 17.8 ± 0.6
  Subgroup 2: Specific motor functions score: 13.9 ± 0.4
  Total score of NDSs: 31.6 ± 0.8
  Tremor score: 2.0 ± 0.0
